31 compounds from patent publication US11945806B2, “Stabilization of amyloidogenic immunoglobulin light chains” (The Scripps Research Institute, priority 2019, dated 2024) can be followed below.

This assay addresses WIL-FL (Homo sapiens, UniProt P01721). Put plainly: Unlabeled LC Protease Sensitivity Assay (proteinase K). Format: biochemical. Conditions: small molecule 10 μM, WIL-FL 5 μM, proteinase K 50 nM, 2 hours at 37° C. On the procedure:
Unlabeled LC Protease Sensitivity Assay. WIL-FL (5 μM) in phosphate-buffered saline (PBS, pH 7.4)+0.02% Pluronic F-127 was incubated with proteinase K (50 nM) with small molecule (10 μM) in 1% DMSO vehicle, or vehicle alone. After 2 hours at 37° C., reactions were quenched with 2 mM phenylmethyl sulfonyl fluoride in methanol and centrifuged at 14,000 rpm for 2 minutes. Remaining WIL-FL was quantified by injecting 10 μL of the supernatant into a Waters Acquity H-Class Bio-UPLC (ultra performance liquid chromatography) instrument equipped with a BEH200 analytical size-exclusion column (1.7 μm, 4.6×150 mm) under isocratic conditions (0.2 mL/min, PBS+1 mM EDTA, 2400 psi backpressure, 15 min), monitoring absorbance at 280 nm. Activity of each compound is given as fold protection from protease=(A_compound−A_vehicle)/(A_no_protease−A_vehicle), where each “A” corresponds to peak integration of the respective treatment.
As for `CCN(CC)c1ccc2c(C)c(CCOC(=O)NCc3cncc(-c4ccc[nH]c4=O)c3)c(=O)oc2c1` [Compound 220, 2-(7-(diethylamino)-4-methyl-2-oxo-2H-chromen-3-yl)ethyl ((2′-oxo-1′,2′-dihydro-[3,3′-bipyridin]-5-yl)methyl)carbamate], the “Protection (fold protection of LC from protease)” value is recorded as “A (A < 0.3))”. As for `CCN(CC)c1ccc2c(C)c(CCN3C(=O)NC4(CCN(C(=O)c5ccncn5)CC4)C3=O)c(=O)oc2c1` [Compound 208, 3-(2-(7-(diethylamino)-4-methyl-2-oxo-2H-chromen-3-yl)ethyl)-8-(pyrimidine-4-carbonyl)-1,3,8-triazaspiro[4.5]decane-2,4-dione], the entry is “B (3 ≤ B < 0.6)”; as for `Cc1cc(=O)oc2cc(OC(C)Cc3ccccc3)ccc12` (stereo not shown) [Compound 47, 4-methyl-7-((1-phenylpropan-2-yl)oxy)-2H-chromen-2-one], “A (A < 0.3))”. Take `C=CCNc1ccc2c(C)cc(=O)oc2c1` [Compound 240, 7-(allylamino)-4-methyl-2H-chromen-2-one]: the “Protection (fold protection of LC from protease)” value is recorded as “A (A < 0.3))”.

For `CCN(CC)c1ccc2c(C)c(CCOC(=O)NCCCc3ccccc3)c(=O)oc2c1` [Compound 81, 2-(7-(diethylamino)-4-methyl-2-oxo-2H-chromen-3-yl)ethyl (3-phenylpropyl)carbamate], the “Protection (fold protection of LC from protease)” value is “A (A < 0.3))”. In the case of `CCN(CC)c1ccc2c(C)c(CCOC(=O)N3CC4(C3)CS(=O)(=O)C4)c(=O)oc2c1` [Compound 110, 2-(7-(diethylamino)-4-methyl-2-oxo-2H-chromen-3-yl)ethyl 2-thia-6-azaspiro[3.3]heptane-6-carboxylate 2,2-dioxide] it was “B (3 ≤ B < 0.6)”; in that of `CCN(CC)c1ccc2c(C)c(CCN3C(=O)NC4(CCN(c5nccn6ccnc56)CC4)C3=O)c(=O)oc2c1` [Compound 215, 3-(2-(7-(diethylamino)-4-methyl-2-oxo-2H-chromen-3-yl)ethyl)-8-(imidazo[1,2-a]pyrazin-8-yl)-1,3,8-triazaspiro[4.5]decane-2,4-dione], “C (C ≥ 0.6)”. As for `Cc1cc(=O)oc2cc(C(=O)Nc3cc(Cl)c(O)c(Cl)c3)ccc12` [Compound 229, N-(3,5-dichloro-4-hydroxyphenyl)-4-methyl-2-oxo-2H-chromene-7-carboxamide], the “Protection (fold protection of LC from protease)” value is listed as “A (A < 0.3))”.

With `CCN(CC)c1ccc2c(C)c(CCN3C(=O)NC4(CCN(c5ncc(C(F)(F)F)cn5)C4)C3=O)c(=O)oc2c1` (stereo not shown) [Compound 195, 3-(2-(7-(diethylamino)-4-methyl-2-oxo-2H-chromen-3-yl)ethyl)-7-(5-(trifluoromethyl)pyrimidin-2-yl)-1,3,7-triazaspiro[4.4]nonane-2,4-dione], the “Protection (fold protection of LC from protease)” value is on record as “A (A < 0.3))”. As for `Cc1cc(=O)oc2cc(NCC3CC3)ccc12` [Compound 246, 7-((cyclopropylmethyl)amino)-4-methyl-2H-chromen-2-one], the entry is “A (A < 0.3))”; as for `CCN(CC)c1ccc2c(C)c(CCOC(=O)NCc3cccc(-c4nc[nH]c4C)c3)c(=O)oc2c1` [Compound 160, 2-(7-(diethylamino)-4-methyl-2-oxo-2H-chromen-3-yl)ethyl (3-(5-methyl-1H-imidazol-4-yl)benzyl)carbamate], “C (C ≥ 0.6)”; as for `CCN(CC)c1ccc2c(C)c(CCN3CC4(CCN(c5ncccn5)CC4)NC3=O)c(=O)oc2c1` [Compound 221, 3-(2-(7-(diethylamino)-4-methyl-2-oxo-2H-chromen-3-yl)ethyl)-8-(pyrimidin-2-yl)-1,3,8-triazaspiro[4.5]decan-2-one], “C (C ≥ 0.6)”. As for `CCN(CC)c1ccc2c(C)c(CCNC(=O)NCc3cccnc3)c(=O)oc2c1` [Compound 98, 1-(2-(7-(diethylamino)-4-methyl-2-oxo-2H-chromen-3-yl)ethyl)-3-(pyridin-3-ylmethyl)urea], the entry is “C (C ≥ 0.6)”. In the case of `CCN(CC)c1ccc2c(C)c(CCOC(=O)NCc3cccc(-c4cccnn4)c3)c(=O)oc2c1` [Compound 166, 2-(7-(diethylamino)-4-methyl-2-oxo-2H-chromen-3-yl)ethyl (3-(pyridazin-3-yl)benzyl)carbamate] it was “C (C ≥ 0.6)”. Regarding `CCN(CC)c1ccc2c(C)c(CCNC(=O)NCc3cccc(Cl)n3)c(=O)oc2c1` [Compound 282, 1-((6-chloropyridin-2-yl)methyl)-3-(2-(7-(diethylamino)-4-methyl-2-oxo-2H-chromen-3-yl)ethyl)urea], the “Protection (fold protection of LC from protease)” value is listed as “B (3 ≤ B < 0.6)”. In the case of `CCN(CC)c1ccc2c(C)c(CCOC(=O)NCc3ccc(NC(C)=O)cn3)c(=O)oc2c1` [Compound 127, 2-(7-(diethylamino)-4-methyl-2-oxo-2H-chromen-3-yl)ethyl ((5-acetamidopyridin-2-yl)methyl)carbamate] it was “B (3 ≤ B < 0.6)”. For `C=CCCNc1ccc2c(C)cc(=O)oc2c1` [Compound 247, 7-(but-3-en-1-ylamino)-4-methyl-2H-chromen-2-one], the “Protection (fold protection of LC from protease)” value is “A (A < 0.3))”. For `CCN(CC)c1ccc2c(C)c(CCOC(=O)N3CCN(c4ncccn4)CC3)c(=O)oc2c1` [Compound 116, 2-(7-(diethylamino)-4-methyl-2-oxo-2H-chromen-3-yl)ethyl 4-(pyrimidin-2-yl)piperazine-1-carboxylate], the “Protection (fold protection of LC from protease)” value was “A (A < 0.3))”. In the case of `CCN(CC)c1ccc2c(C)c(CCOC(=O)N3CCS(=O)(=O)CC3)c(=O)oc2c1` [Compound 112, 2-(7-(diethylamino)-4-methyl-2-oxo-2H-chromen-3-yl)ethyl thiomorpholine-4-carboxylate 1,1-dioxide] it was “A (A < 0.3))”. In the case of `Cc1cc(=O)oc2cc(OC(C)c3ccccc3F)ccc12` (stereo not shown) [Compound 49, 7-(1-(2-fluorophenyl)ethoxy)-4-methyl-2H-chromen-2-one] it was “A (A < 0.3))”; in that of `CCN(CC)c1ccc2c(C)c(CCNC(=O)NCc3cccc(CCC(=O)OC)c3)c(=O)oc2c1` [Compound 308, Methyl 3-(3-((3-(2-(7-(diethylamino)-4-methyl-2-oxo-2H-chromen-3-yl)ethyl)ureido)methyl)phenyl)propanoate], “B (3 ≤ B < 0.6)”; in that of `CCN(CC)c1ccc2c(C)c(CCOC(=O)Nc3ccc(NC(C)=O)cn3)c(=O)oc2c1` [Compound 103, 2-(7-(diethylamino)-4-methyl-2-oxo-2H-chromen-3-yl)ethyl (5-acetamidopyridin-2-yl)carbamate], “B (3 ≤ B < 0.6)”.

Regarding `CCN(CC)c1ccc2c(C)c(CCOC(=O)NCCc3cnc[nH]3)c(=O)oc2c1` [Compound 88, 2-(7-(diethylamino)-4-methyl-2-oxo-2H-chromen-3-yl)ethyl (2-(1H-imidazol-4-yl)ethyl)carbamate], the “Protection (fold protection of LC from protease)” value was “B (3 ≤ B < 0.6)”.

Turning to `CCN(CC)c1ccc2c(C)c(CCN3C(=O)NC4(CCN(C(=O)c5cnccn5)C4)C3=O)c(=O)oc2c1` (stereo not shown) [Compound 211, 3-(2-(7-(diethylamino)-4-methyl-2-oxo-2H-chromen-3-yl)ethyl)-7-(pyrazine-2-carbonyl)-1,3,7-triazaspiro[4.4]nonane-2,4-dione], the “Protection (fold protection of LC from protease)” value is given as “B (3 ≤ B < 0.6)”. As for `C#CCN(CC#C)c1ccc2c(C)cc(=O)oc2c1` [Compound 248, 7-(di(prop-2-yn-1-yl)amino)-4-methyl-2H-chromen-2-one], the entry is “B (3 ≤ B < 0.6)”; as for `CCN(CC)c1ccc2c(C)c(CCOC(=O)NCc3ccc(Cl)nc3)c(=O)oc2c1` [Compound 97, 2-(7-(diethylamino)-4-methyl-2-oxo-2H-chromen-3-yl)ethyl ((6-chloropyridin-3-yl)methyl)carbamate], “A (A < 0.3))”; as for `CCN(CC)c1ccc2c(CCCOC(=O)NCc3cccc(-c4c[nH]cn4)c3)cc(=O)oc2c1` [Compound 304, 3-(7-(diethylamino)-2-oxo-2H-chromen-4-yl)propyl (3-(1H-imidazol-4-yl)benzyl)carbamate], “A (A < 0.3))”.

As to `CCN(CC)c1ccc2c(CCCOC(=O)NCc3cccc(S(N)(=O)=O)c3)cc(=O)oc2c1` [Compound 303, 3-(7-(diethylamino)-2-oxo-2H-chromen-4-yl)propyl (3-sulfamoylbenzyl)carbamate], the “Protection (fold protection of LC from protease)” value is “A (A < 0.3))”. In the case of `CCN(CC)c1ccc2c(C)c(CCOC(=O)NCc3cccc(C(=O)O)c3)c(=O)oc2c1` [Compound 123, 3-((((2-(7-(diethylamino)-4-methyl-2-oxo-2H-chromen-3-yl)ethoxy)carbonyl)amino)methyl)benzoic acid] it was “B (3 ≤ B < 0.6)”; in that of `CCN(c1ccc2c(C)cc(=O)oc2c1)C(C)C` [Compound 274, 7-(ethyl(isopropyl)amino)-4-methyl-2H-chromen-2-one], “A (A < 0.3))”. In the case of `Cc1cc(=O)oc2cc(N(CCCF)CCCF)ccc12` [Compound 250, 7-(bis(3-fluoropropyl)amino)-4-methyl-2H-chromen-2-one] it was “A (A < 0.3))”.
